Experimental data as given in US8859466B2, “Oxaspirocyclic spiro-substituted tetramic acid and tetronic acid derivatives” (Bayer CropScience AG, priority 2007, dated 2014).
Blank lines part the entries; values can stand above or below the molecule they belong to.

Legend:
[1] = test system: green peach aphid (Myzus persicaei); assay: Myzus persicae test (MYZUPE) with ammonium salts and/or penetrants; assay type: in vivo; details: for % efficacy after 6 days +AMS: +AMS (ammonium sulphate) 1000 ppm; for % efficacy after 6 days +RME: +RME (rapeseed oil methyl ester) 1000 ppm; for % efficacy after 6 days +RME + AMS: each 1000 ppm
Experimental: Myzus persicae Test (MYZUPE)
Solvent: 7 parts by weight of dimethylformamide
(§1) Emulsifier: 2 parts by weight of alkylaryl polyglycol ether
(§2) To produce a suitable preparation of active compound, 1 part by weight of active compound is mixed with the stated amounts of solvents and emulsifier, and the concentrate is diluted with emulsifier-containing water to the desired concentration. For the required application of ammonium salts, penetrants or ammonium salts and penetrants, these are in each case added with a pipette after dilution of the respective finished solution of the preparation at a concentration of 1000 ppm.
Paprika plants (Capsicum annuum) which are heavily infested by the green peach aphid (Myzus persicaei) are treated by being sprayed with the preparation of active compound of the desired concentration.
After the desired period of time, the kill in % is determined. 100% means that all animals have been killed; 0% means that none of the animals have been killed.

[2] = test system: cotton aphid (Aphis gossypii); assay: Aphis gossypii test (APHIGO) with ammonium salts and/or penetrants; assay type: in vivo; details: for % efficacy after 6 days +AMS: +AMS (ammonium sulphate) 1000 ppm; for % efficacy after 6 days +RME: +RME (rapeseed oil methyl ester) 1000 ppm; for % efficacy after 6 days +RME + AMS: each 1000 ppm
Experimental: Aphis gossypii Test (APHIGO)
Solvents: 7 parts by weight of dimethylformamide
as §1, §2
Cotton leaves (Gossypium hirsutum) which are heavily infested by the cotton aphid (Aphis gossypii) are sprayed with an active compound preparation of the desired concentration.
After the desired period of time, the kill in % is determined. 100% means that all aphids have been killed; 0% means that none of the aphids have been killed.

Summer wheat = assay: Herbicidal post-emergence action with use of safeners, container trials with cereal in a greenhouse; assay type: in vivo; details: 28 days after application
Experimental: (§3) 1. Herbicidal Post-Emergence Action • Seeds of monocotyledonous and dicotyledonous weed and crop plants are placed in sandy loam in wood fibre pots or in plastic pots, covered with soil and cultivated in a greenhouse, during the vegetation period also outdoors outside of the greenhouse, under good growth conditions. 2 to 3 weeks after sowing, the test plants are treated at one- to three-leaf stage. The test compounds, formulated as wettable powders (WP) or liquid (EC) are, at a water application rate of 300 l/ha (converted), with wetting agent (0.2 to 0.3%) added, sprayed at various dosages onto the plants and the surface of the soil. 3 to 4 weeks after treatment of the test plants, the effect of the preparations is rated visually in comparison to untreated controls (herbicidal activity in percent: 100% activity=the plants have died, 0% activity=like control plants).
(§4) Use of Safeners: • If it is additionally to be tested as to whether safeners can improve the plant compatibility of test substances in the case of crop plants, the following options are used for applying the safeners: • seeds of the crop plants are, before sowing, dressed with the safener substance (the amount of safener stated in percent, based on the weight of the seed) • before application of the test substances, the crop plants are sprayed with the safener at a certain application rate per hectare (usually 1 day before the application of the test substances) • the safener is applied together with the test substance as a tank mix (the amount of safener stated in g/ha or as a ratio, based on the herbicide). • Container trials with cereal in a greenhouse • mefenpyr 1 day prior to herbicide application

cereal = assay: Herbicidal post-emergence action with use of safeners, container trials with cereal in a greenhouse (other cereal crop plants); assay type: in vivo; details: 10 days after application
Experimental: as §3, §4

[3] = Determination of the logP values by HPLC on a reverse-phase column (C 18); assay type: physicochemical; details: for log P*: compounds of formula (I-2-b)
Experimental: Determination of the logP Values
The logP values given in the table were determined in accordance with EEC Directive 79/831 Annex V.A8 by HPLC (high performance liquid chromatography) on a reverse-phase column (C 18). Temperature: 55° C.
Mobile phases for the determination in the acidic range (pH 3.4):
Mobile phase A: acetonitrile+1 ml of formic acid/liter. Mobile phase B: water+0.9 ml of formic acid/liter.
Gradient: from 10% mobile phase A/90% mobile phase B to 95% mobile phase A/5% mobile phase B over 4.25 min.
Calibration was carried out using unbranched alkan-2-ones (having 3 to 16 carbon atoms) with known logP values (determination of the logP values by the retention times using linear interpolation between two successive alkanones). The lambda max values were determined in the maxima of the chromatographic signals using the UV spectra from 200 nm to 400 nm.

[4] = HPLC, reverse-phase C 18, acidic range (pH 3.4), 55° C.

Compound: Cc1cc(C)c(C2=C(O)C3(CCC4(CCCO4)CC3)NC2=O)c(C)c1 (mixture of isomers) [Example I-1-a-4]
- % efficacy after 6 days +AMS ([1]; 0.8 ppm): 0%
- % efficacy after 6 days +RME ([1]; 0.8 ppm): 60%
- % efficacy after 6 days +RME + AMS ([1]; 0.8 ppm): 99%
- % efficacy after 6 days without additive ([1]; 0.8 ppm): 10%
- % efficacy after 6 days +AMS ([1]; 4 ppm): 80%
- % efficacy after 6 days +RME ([1]; 4 ppm): 90%
- % efficacy after 6 days +RME + AMS ([1]; 4 ppm): 98%
- % efficacy after 6 days without additive ([1]; 4 ppm): 75%
- % efficacy after 6 days +AMS ([2]; 0.8 ppm): 0%
- % efficacy after 6 days +RME ([2]; 0.8 ppm): 15%
- % efficacy after 6 days +RME + AMS ([2]; 0.8 ppm): 45%
- % efficacy after 6 days without additive ([2]; 0.8 ppm): 10%
- % efficacy after 6 days +AMS ([2]; 4 ppm): 75%
- % efficacy after 6 days +RME ([2]; 4 ppm): 75%
- % efficacy after 6 days +RME + AMS ([2]; 4 ppm): 80%
- % efficacy after 6 days without additive ([2]; 4 ppm): 60%

Compound: Cc1cc(Cl)cc(C)c1C1=C(O)C2(CCC3(CCCO3)CC2)NC1=O (mixture of isomers) [Example I-1-a-6]
- % efficacy after 6 days +AMS ([2]; 20 ppm): 5%
- % efficacy after 6 days +RME ([2]; 20 ppm): 60%
- % efficacy after 6 days +RME + AMS ([2]; 20 ppm): 95%
- % efficacy after 6 days without additive ([2]; 20 ppm): 35%

Compound: Cc1cc(Br)cc(C)c1C1=C(O)C2(CCC3(CCCO3)CC2)NC1=O (mixture of isomers) [Example I-1-a-8]
- % efficacy after 6 days +AMS ([1]; 0.8 ppm): 0%
- % efficacy after 6 days +RME ([1]; 0.8 ppm): 20%
- % efficacy after 6 days +RME + AMS ([1]; 0.8 ppm): 99%
- % efficacy after 6 days without additive ([1]; 0.8 ppm): 0%
- % efficacy after 6 days +AMS ([1]; 4 ppm): 98%
- % efficacy after 6 days +RME ([1]; 4 ppm): 99%
- % efficacy after 6 days +RME + AMS ([1]; 4 ppm): 100%
- % efficacy after 6 days without additive ([1]; 4 ppm): 45%

Compound: CCc1cc(Cl)cc(OC)c1C1=C(O)C2(CCC3(CCCO3)CC2)NC1=O (mixture of isomers) [Example I-1-a-11]
- Summer wheat observed (%) (Summer wheat; 12.5 g of a.i./ha): 65%
- Summer wheat observed (%) (Summer wheat; 25 g of a.i./ha): 70%
- Summer wheat observed (%) (Summer wheat; 50 g of a.i./ha): 80%
- Summer wheat observed (%) (Summer wheat; 100 g of a.i./ha): 95%

Compound: COc1cc(C)cc(Cl)c1C1=C(O)C2(CCC3(CCCO3)CC2)NC1=O (mixture of isomers) [Example I-1-a-13]
- Summer barley observed (%) (cereal; 12.5 g of a.i./ha): 20%
- Summer barley observed (%) (cereal; 25 g of a.i./ha): 20%
- Summer barley observed (%) (cereal; 50 g of a.i./ha): 30%

Compound: Cc1ccc(-c2ccc(F)cc2)cc1C1=C(OC(=O)C(C)C)C2(CCC3(CCCO3)CC2)OC1=O (stereo not drawn) [Example I-2-b-10]
- log P* [3]: 5.38

Compound: CC(C)C(=O)OC1=C(c2cc(-c3ccc(Cl)cc3)ccc2Cl)C(=O)OC12CCC1(CCCO1)CC2 (stereo not drawn) [Example I-2-b-12]
- log P* [3]: 5.26

Compound: Cc1ccc(-c2ccc(Cl)cc2)cc1C1=C(OC(=O)C(C)C)C2(CCC3(CCCO3)CC2)OC1=O (stereo not drawn) [Example I-2-b-13]
- log P* [3]: 5.29

Compound: Cc1cc(C)c(C2=C(OC(=O)C(C)(C)C)C3(CCC4(CCCO4)CC3)OC2=O)c(C)c1 (stereo not drawn) [Example I-2-b-14]
- log P* [3]: 4.96

Compound: Cc1ccc(-c2ccc(Cl)cc2)c(C)c1C1=C(OC(=O)C(C)C)C2(CCC3(CCCO3)CC2)OC1=O (stereo not drawn) [Example I-2-b-15]
- log P* [3]: 5.63

Compound: Cc1ccc(-c2ccc(Cl)cc2)c(C)c1C1=C(OC(=O)C(C)(C)C)C2(CCC3(CCCO3)CC2)OC1=O (stereo not drawn) [Example I-2-b-16]
- log P* [3]: 6.09

Compound: Cc1cc(C)c(C2=C(OC(=O)C(C)(C)C)C3(CCC4(CCCO4)CC3)OC2=O)c(C)c1 (stereo not drawn) [Example I-2-b-17]
- log P* [3]: 5.58

Compound: COc1cccc(C)c1C1=C(OC(=O)C(C)C)C2(CCC3(CCCO3)CC2)OC1=O (stereo not drawn) [Example I-2-b-18]
- log P* [3]: 3.75

Compound: COc1cccc(C)c1C1=C(OC(=O)C(C)(C)C)C2(CCC3(CCCO3)CC2)OC1=O (stereo not drawn) [Example I-2-b-19]
- log P* [3]: 4.16

Compound: COc1cccc(C)c1C1=C(OC(=O)C(C)C)C2(CCC3(CCCO3)CC2)OC1=O (stereo not drawn) [Example I-2-b-20]
- log P* [3]: 4.25

Compound: COc1cc(C)cc(C)c1C1=C(OC(=O)C(C)(C)C)C2(CCC3(CCCO3)CC2)OC1=O (stereo not drawn) [Example I-2-b-21]
- log P* [3]: 4.50

Continued, values first:

- log P* [3]: 5.17
Compound: CCc1cc(C)cc(CC)c1C1=C(OC(=O)C(C)C)C2(CCC3(CCCO3)CC2)OC1=O (stereo not drawn) [Example I-2-b-22]

- log P* [3]: 5.62
Compound: CCc1cc(C)cc(CC)c1C1=C(OC(=O)C(C)(C)C)C2(CCC3(CCCO3)CC2)OC1=O (stereo not drawn) [Example I-2-b-23]

- log P* [3]: 5.79
Compound: CCc1cc(C)cc(CC)c1C1=C(OC(=O)C(C)C)C2(CCC3(CCCO3)CC2)OC1=O (stereo not drawn) [Example I-2-b-24]

- log P* [3]: 6.25
Compound: CCc1cc(C)cc(CC)c1C1=C(OC(=O)C(C)(C)C)C2(CCC3(CCCO3)CC2)OC1=O (stereo not drawn) [Example I-2-b-25]

- chromatographic logP ([3]; reverse-phase HPLC column (C 18), HPLC, reverse-phase C 18, acidic range (pH 3.4), 55° C., read-out: log P): 4.09
Compound: CCOC(=O)OC1=C(c2c(C)cc(C)cc2C)C(=O)O[C@]12CC[C@]1(CCCO1)CC2 [Example I-2-c-1]

- log P [3, 4]: 4.69
Compound: CCOC(=O)OC1=C(c2c(C)cc(C)cc2C)C(=O)OC12CCC1(CCCO1)CC2 (stereo not drawn) [Example I-2-c-2]

- log P [3, 4]: 4.68
Compound: CCOC(=O)OC1=C(c2c(CC)cc(C)cc2CC)C(=O)OC12CCC1(CCCO1)CC2 (stereo not drawn) [Example I-2-c-3]

- log P [3, 4]: 5.28
Compound: CCOC(=O)OC1=C(c2c(CC)cc(C)cc2CC)C(=O)OC12CCC1(CCCO1)CC2 (stereo not drawn) [Example I-2-c-4]
